In patent publication US8080632B2, “Peptide mimics of melanocyte stimulating hormone” (The Feinstein Institute for Medical Research, priority 2005, dated 2011):

Assays:
[1] = system: Macrophage-like RAW cells; assay: Structure function: inhibition of LPS (4 ng/ml)-stimulated TNF release; type: cell-based, murine; conditions: full range of the dose-response curve
RAW cells = assay: Cyclic-AMP production in RAW cells; type: cell-based, murine; conditions: FIG. 8

| Substance | activity in suppressing TNF release relative to MECO-1 [1] | stimulation of cAMP production (RAW cells) |
| --- | --- | --- |
| EFG-2: C-terminus of human mitochondrial EF-G2: TLTSGSATFALELSTYQAMNPQDQNTLLNRRSGLT (listed as Homo sapiens) | as active as MECO-1 |  |
| adrenocorticotropic hormone (SYSMEHFRWGKPVGKKRRPVKVYPNGAEDESAEAFPLEF; mammalian melanocortin ACTH (1-39)) [obtained from Bachem Bioscience] |  | dose-dependent fashion |
